The text below walks through data of ChEMBL document CHEMBL1268814, “Synthesis and biological evaluation of bivalent ligands for the cannabinoid 1 receptor” (J Med Chem, 2010).

Each structure is given as a SMILES string. Calls of active or inactive are those of the source. No cut-off for these calls is given here.

The target in test [1] is Cannabinoid receptor 1 (Rattus norvegicus, UniProt P20272). Briefly: Antagonist activity at rat brain CB1 receptor assessed as inhibition of [35S]GTPgammaS binding. Format: functional. On the technique in general: GTPγS resists hydrolysis and so accumulates on activated G proteins.
Test [2] addresses Cannabinoid receptor 2 (Homo sapiens, UniProt P34972). Briefly: Displacement of [3H]CP55940 from human CB2 receptor expressed in CHOK1 cells. Format: cell-based, CHO-K1.
For test [3], the target named is Cannabinoid receptor 1 (Rattus norvegicus) (UniProt P20272). Briefly: Antagonist activity at rat brain CB1 receptor assessed as inhibition of [35S]GTPgammaS binding at 10000 nM. Format: functional.
Test [4] has as its target T1, Cannabinoid receptor 1 (Homo sapiens, UniProt P21554). The note with it: CHO.
For test [5], the target named is T1, Cannabinoid receptor 1. Briefly: Antagonist activity at human brain CB1 receptor by calcium mobilization assay. Particulars: read-out: pA2 (converted). Format: functional.
Test [6] concerns the target T1, Cannabinoid receptor 1. Briefly: Antagonist activity at human brain CB1 receptor assessed as inhibition for [35S]GTPgammaS binding at 10000 nM. Format: functional.
Test [7] addresses T1, Cannabinoid receptor 1. As to the kind of experiment: Displacement of [3H]CP55940 from human CB1 receptor expressed in HEK293 cells. Format: cell-based. (In general: Displacement assays read how much labelled ligand stays bound in the presence of the test substance.)
For test [8], the target named is T1, Cannabinoid receptor 1. Briefly: biochemical. Format: cell-based, HEK293.
In test [9] the target is T1, Cannabinoid receptor 1. Briefly: Antagonist activity at human brain CB1 receptor assessed as inhibition for [35S]GTPgammaS binding. Format: functional.
In test [10] the test system is Mus musculus. As to the kind of experiment: Inhibition of compound 21-induced antinociception in mouse at 10 mg/kg, ip administered 30 mins before compound-21 dosing by tail flick latency test.

T1 sequence (P21554 whole entry): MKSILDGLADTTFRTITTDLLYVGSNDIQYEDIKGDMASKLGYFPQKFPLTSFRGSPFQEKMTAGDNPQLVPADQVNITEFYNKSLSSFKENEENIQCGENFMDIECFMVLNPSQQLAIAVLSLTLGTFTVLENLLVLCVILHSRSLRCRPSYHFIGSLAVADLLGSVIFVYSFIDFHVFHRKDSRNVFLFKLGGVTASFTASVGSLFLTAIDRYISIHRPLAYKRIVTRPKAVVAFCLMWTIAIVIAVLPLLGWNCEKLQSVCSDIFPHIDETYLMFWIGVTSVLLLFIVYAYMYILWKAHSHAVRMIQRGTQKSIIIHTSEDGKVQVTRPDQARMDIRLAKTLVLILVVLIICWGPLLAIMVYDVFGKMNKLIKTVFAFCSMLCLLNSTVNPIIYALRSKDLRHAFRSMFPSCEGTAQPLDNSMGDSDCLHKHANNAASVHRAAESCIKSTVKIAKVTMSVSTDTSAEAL
Sequence of Cannabinoid receptor 1 (Rattus norvegicus, UniProt P20272) (P20272 whole entry): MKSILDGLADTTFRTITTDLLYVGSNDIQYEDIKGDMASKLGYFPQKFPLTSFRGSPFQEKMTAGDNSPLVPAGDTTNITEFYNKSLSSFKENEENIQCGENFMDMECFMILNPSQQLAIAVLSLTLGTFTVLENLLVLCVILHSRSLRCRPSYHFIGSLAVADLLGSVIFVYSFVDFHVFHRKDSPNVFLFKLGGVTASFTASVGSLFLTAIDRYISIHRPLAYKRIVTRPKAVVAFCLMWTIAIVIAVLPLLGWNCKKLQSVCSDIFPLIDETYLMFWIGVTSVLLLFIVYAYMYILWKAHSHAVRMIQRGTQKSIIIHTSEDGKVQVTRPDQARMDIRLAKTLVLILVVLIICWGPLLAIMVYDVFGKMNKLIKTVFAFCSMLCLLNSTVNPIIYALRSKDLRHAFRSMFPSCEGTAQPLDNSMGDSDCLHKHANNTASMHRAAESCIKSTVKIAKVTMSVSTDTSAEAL
Sequence of Cannabinoid receptor 1 (Rattus norvegicus) (P20272 whole entry): as above
Sequence of Cannabinoid receptor 2 (P34972 whole entry): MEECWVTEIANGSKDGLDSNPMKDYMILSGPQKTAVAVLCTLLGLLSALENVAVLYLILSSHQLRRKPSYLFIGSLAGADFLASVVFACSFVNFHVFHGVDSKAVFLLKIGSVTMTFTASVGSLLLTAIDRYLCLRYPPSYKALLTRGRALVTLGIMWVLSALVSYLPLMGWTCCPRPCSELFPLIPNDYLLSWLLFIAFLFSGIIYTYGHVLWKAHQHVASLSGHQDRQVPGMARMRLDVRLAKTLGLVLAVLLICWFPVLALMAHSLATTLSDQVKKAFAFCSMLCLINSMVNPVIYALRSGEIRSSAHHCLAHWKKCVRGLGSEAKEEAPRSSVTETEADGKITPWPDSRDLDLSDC

Consider `Cc1c(C(=O)NCCCCCNCCCCCNC(=O)c2nn(-c3ccc(Cl)cc3Cl)c(-c3ccc(Cl)cc3)c2C)nn(-c2ccc(Cl)cc2Cl)c1-c1ccc(Cl)cc1`, for which the results for the EC50 in test [1] and in test [9] were more than 10 µM and 33 nM, respectively. Also, the Ki in [2] turned out to be 451 nM; in [7], 68.1 nM; in test [8], 30.4 nM. Moreover, the results for the Emax in test [3] and in [6] were -29.6% and 8.5%, respectively. This compound yielded a Ke in [4] of 476 nM. For the same compound, the Kb in [5] was 29.5 nM.

Take `Cc1c(C(=O)NCCCCCCCCCNCCCCCCCCCNC(=O)c2nn(-c3ccc(Cl)cc3Cl)c(-c3ccc(Cl)cc3)c2C)nn(-c2ccc(Cl)cc2Cl)c1-c1ccc(Cl)cc1`: the results for the EC50 in test [1] and in test [9] were 0.00134 µM and 27.9 nM, respectively. The inhibition constant (Ki) was more than 2500 nM in test [2], 54.1 nM in test [7] and 57.4 nM in test [8]. The Emax in test [3] worked out at 10.4%; in test [6] it was 6.5%. Further, in test [4], the Ke was 4160 nM. The Kb in [5] is 17.4 nM.

Turning to `Cc1c(C(=O)NCCCCCN(C)CCCCCN)nn(-c2ccc(Cl)cc2Cl)c1-c1ccc(Cl)cc1`, the EC50 in test [1] came to 3.04 µM. For the same compound, the Emax in test [3] is -53.3%. The compound further showed a Ke in [4] of 2870 nM. Moreover, in test [5], the Kb is 309 nM. Besides, the inhibitory constant (Ki) is 162 nM in test [7] and 88.8 nM in test [8].

Take `Cc1c(C(=O)NCCCCCCCNCCCCCCCNC(=O)c2nn(-c3ccc(Cl)cc3Cl)c(-c3ccc(Cl)cc3)c2C)nn(-c2ccc(Cl)cc2Cl)c1-c1ccc(Cl)cc1`: the EC50 in test [1] is 1.19 µM; in [9], 179 nM. Moreover, the inhibition constant Ki in test [2] amounted to 553 nM; in [7] it was 12.3 nM; in test [8], 4.41 nM. Also, in test [10], the inhibition result was “inactive”. The values for the Emax in test [3] and in test [6] were -25% and -38.8%, respectively. This compound also showed a Ke in test [4] of 567 nM. The Kb in [5] was 8.32 nM.

As for `Cc1c(C(=O)NCCCCCCCCCN(C)CCCCCCCCCN)nn(-c2ccc(Cl)cc2Cl)c1-c1ccc(Cl)cc1`, the 50% effective concentration (EC50) in test [1] amounted to 3.4 µM. The Ki was 265 nM in test [2], 10 nM in [7] and 6.12 nM in test [8]. In [3], the Emax is -67.9%. This compound also returned a Ke in test [4] of 141 nM. Further, the Kb in [5] was 4.57 nM.

Regarding `Cc1c(C(=O)NCCCCCCCCCCCNCCCCCCCCCCCN)nn(-c2ccc(Cl)cc2Cl)c1-c1ccc(Cl)cc1`, the EC50 in [1] was 3.62 µM. In addition, the Ki was determined as 305 nM in [2], 4.56 nM in [7] and 2.3 nM in test [8]. The Emax in [3] is -29.2%. In addition, the Ke in test [4] was determined as 146 nM. Moreover, the Kb in test [5] was 3.16 nM.

As for `Cc1c(C(=O)NCCNCCN)nn(-c2ccc(Cl)cc2Cl)c1-c1ccc(Cl)cc1`, the EC50 in test [1] turned out to be 7.24 µM. The results for the inhibitory constant (Ki) in test [2], in [7] and in test [8] were more than 2500 nM, 1230 nM and 506 nM, respectively. For the same compound, the Emax in [3] was -22.9%. The Ke entry in test [4] was “inactive”.

Consider `Cc1c(C(=O)NCCCCCCCCCCCNCCCCCCCCCCCNC(=O)c2nn(-c3ccc(Cl)cc3Cl)c(-c3ccc(Cl)cc3)c2C)nn(-c2ccc(Cl)cc2Cl)c1-c1ccc(Cl)cc1`, for which the EC50 in test [1] was more than 10 µM; in test [9] it was more than 25000 nM. Also, the figures for the inhibition constant Ki in test [2], in [7] and in test [8] were more than 2500 nM, 99.3 nM and 37 nM, respectively. For the same compound, in test [3], the Emax is -12.2%. The compound further registered a Ke in test [4] of more than 10000 nM. Further, the Kb in [5] is 27.5 nM.

As for `Cc1c(C(=O)NCCCCCCCCCCCN(C)CCCCCCCCCCCN)nn(-c2ccc(Cl)cc2Cl)c1-c1ccc(Cl)cc1`, the EC50 in [1] was 8.77 µM. Also, the Ki in test [2] was determined as 426 nM; in [7] it was 14.7 nM; in [8], 5.51 nM. In addition, in test [3], the Emax is -49.3%. In test [4], this compound had a Ke of 206 nM. For the same compound, in test [5], the Kb is 23.4 nM.

As to `Cc1c(C(=O)NCCCCCCCCCN(C)CCCCCCCCCNC(=O)c2nn(-c3ccc(Cl)cc3Cl)c(-c3ccc(Cl)cc3)c2C)nn(-c2ccc(Cl)cc2Cl)c1-c1ccc(Cl)cc1`, the EC50 in [1] was more than 10 µM; in [9], 161 nM. The Ke result in test [4] was “inactive”. The Kb in test [5] was 29.5 nM. In addition, in [6], the Emax was -23%. The Ki in test [7] was determined as 247 nM; in test [8], 94.1 nM.

As for `Cc1c(C(=O)NCCCCCCCN(C)CCCCCCCN)nn(-c2ccc(Cl)cc2Cl)c1-c1ccc(Cl)cc1`, the concentration for a half-maximal effect (EC50) in test [1] was found to be 4.37 µM. The Ki in test [2] turned out to be 1930 nM; in test [7], 37.5 nM; in test [8] it was 15.5 nM. The inhibition entry in [10] was “Active”. The Emax in test [3] was -62%. In test [4], this compound came in with a Ke of 220 nM. Also, the Kb in [5] was 21.9 nM.

As to `Cc1c(C(=O)NCCCCCCCNCCCCCCCN)nn(-c2ccc(Cl)cc2Cl)c1-c1ccc(Cl)cc1`, in [1], the EC50 stood at 3.28 µM. Besides, the values for the Ki in test [2], in [7] and in test [8] were 622 nM, 46.7 nM and 19.5 nM, respectively. The inhibition result in test [10] is “inactive”. In test [3], the Emax was -52.8%. The Ke in [4] turned out to be 503 nM. Besides, the Kb in test [5] is 20.4 nM.

On to `Cc1c(C(=O)NCCCCCCCN(C)CCCCCCCNC(=O)c2nn(-c3ccc(Cl)cc3Cl)c(-c3ccc(Cl)cc3)c2C)nn(-c2ccc(Cl)cc2Cl)c1-c1ccc(Cl)cc1`, for which the EC50 in [1] came out at 1.46 µM; in test [9], 2240 nM. For the same compound, the inhibition result in [10] is “Active”. Further, the Emax in test [3] is -40.8%; in [6] it was -32.7%. The same compound displayed a Ke in test [4] of 478 nM. For the same compound, the Kb in test [5] was 4.27 nM. In addition, the Ki in [7] was 17.3 nM; in [8], 27.5 nM.

Regarding `Cc1c(C(=O)NCCCNCCCN)nn(-c2ccc(Cl)cc2Cl)c1-c1ccc(Cl)cc1`, in test [1], the 50% effective concentration (EC50) is more than 10 µM. The Ki in test [2], in [7] and in test [8] was more than 2500 nM each time. Further, the Emax in [3] is -34.8%. Also, the Ke result in test [4] is “inactive”.

For the compound `Cc1c(C(=O)NCCCCCNCCCCCN)nn(-c2ccc(Cl)cc2Cl)c1-c1ccc(Cl)cc1`, in test [1], the 50% effective concentration (EC50) was found to be 2.22 µM. In addition, the Ki in [2] was more than 2500 nM; in test [7] it was 349 nM; in test [8], 230 nM. In addition, the Emax in test [3] was -40.7%. For the same compound, the Ke in test [4] stood at 5400 nM. In addition, in [5], the Kb is 759 nM.

With `Cc1c(C(=O)NCCNCCNC(=O)c2nn(-c3ccc(Cl)cc3Cl)c(-c3ccc(Cl)cc3)c2C)nn(-c2ccc(Cl)cc2Cl)c1-c1ccc(Cl)cc1`, the 50% effective concentration (EC50) in [1] was more than 10 µM; in [9] it was 237 nM. The Ki in [2] turned out to be 1280 nM; in [7], 229 nM; in [8] it was 94 nM. For the same compound, the Emax in test [3] is -35.9%; in test [6] it was -25.5%. The compound also registered a Ke in [4] of 2700 nM. In addition, the Kb in test [5] was 83.2 nM.

For `Cc1c(C(=O)NCCCCCN(C)CCCCCNC(=O)c2nn(-c3ccc(Cl)cc3Cl)c(-c3ccc(Cl)cc3)c2C)nn(-c2ccc(Cl)cc2Cl)c1-c1ccc(Cl)cc1`, the EC50 is 0.00178 µM in test [1] and 59.8 nM in test [9]. For the same compound, the inhibition constant Ki in test [2] worked out at 1040 nM; in [7], 38.7 nM; in [8] it was 6.35 nM. In addition, the Emax in [3] is -3.8%; in test [6], -13.1%. In addition, the Ke in [4] stood at 108 nM. Further, the Kb in test [5] was 11 nM.

Turning to `Cc1c(C(=O)NCCCCCCCCCNCCCCCCCCCN)nn(-c2ccc(Cl)cc2Cl)c1-c1ccc(Cl)cc1`, in test [1], the EC50 turned out to be 2.39 µM. The inhibition constant (Ki) in [2] is 419 nM; in test [7] it was 14 nM; in [8] it was 5.44 nM. The Emax in test [3] was -65.2%. In test [4], this compound gave a Ke of 31.6 nM. For the same compound, in test [5], the Kb was 5.62 nM.

As for `Cc1c(C(=O)NCCCCCCCCCCCN(C)CCCCCCCCCCCNC(=O)c2nn(-c3ccc(Cl)cc3Cl)c(-c3ccc(Cl)cc3)c2C)nn(-c2ccc(Cl)cc2Cl)c1-c1ccc(Cl)cc1`, the EC50 in [1] is 0.0293 µM; in [9], more than 25000 nM. In addition, the Emax in test [3] was determined as 17.3%. In test [4], the Ke result is “inactive”. Also, the Kb in test [5] was 501 nM. Also, the Ki worked out at 1890 nM in [7] and 1290 nM in test [8].

Turning to `Cc1c(C(=O)NCCCNCCCNC(=O)c2nn(-c3ccc(Cl)cc3Cl)c(-c3ccc(Cl)cc3)c2C)nn(-c2ccc(Cl)cc2Cl)c1-c1ccc(Cl)cc1`, the half-maximal effective concentration (EC50) in test [1] amounted to 0.718 µM; in test [9], 84.2 nM. Besides, the values for the inhibition constant Ki in test [2], in [7] and in [8] were 496 nM, 174 nM and 41.9 nM, respectively. In addition, the Emax in test [3] was -37.2%; in test [6], -31.9%. This compound yielded a Ke in [4] of 1300 nM. Besides, the Kb in test [5] was 38.9 nM.

As a reminder, the EC50 is the concentration that produces a half-maximal response. A word on the Ki: it is a measure of affinity in units of concentration, obtained from inhibition or displacement. By Emax is commonly meant the maximal effect, on the per cent scale that the assay sets.
